These compounds were tested against T1, human bradykinin B2 receptor (hB2R) (Homo sapiens, UniProt P30411) (assay: human bradykinin B2 receptor calcium mobilization (hB2R-CaM) assay). Settings: antagonism of bradykinin (EC80) induced calcium mobilization, B2 Bradykinin Receptor Stable Cell Line HTS041C, 25 min pre-incubation; read-out: IC50-value towards human bradykinin B2 receptor (hB2R).
T1 sequence (P30411 1-391): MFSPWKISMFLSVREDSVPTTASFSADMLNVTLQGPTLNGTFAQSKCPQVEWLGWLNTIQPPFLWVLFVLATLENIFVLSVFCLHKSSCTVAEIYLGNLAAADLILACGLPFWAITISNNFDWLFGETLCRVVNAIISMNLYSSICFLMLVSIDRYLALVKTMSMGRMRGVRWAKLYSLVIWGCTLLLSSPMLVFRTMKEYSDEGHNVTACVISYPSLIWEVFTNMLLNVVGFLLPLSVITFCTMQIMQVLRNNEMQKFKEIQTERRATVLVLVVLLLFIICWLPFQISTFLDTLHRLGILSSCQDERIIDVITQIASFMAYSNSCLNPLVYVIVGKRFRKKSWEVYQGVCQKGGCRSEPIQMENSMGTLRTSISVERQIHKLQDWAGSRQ
Format: cell-based
Description: The following cell-based human bradykinin B2 receptor calcium mobilization (hB2R-CaM) assay was used to determine the antagonistic activity of compounds selected from the example compounds Nos. 1 to 107 towards human bradykinin B2 receptor (hB2R). The assay is defined herein as a standard in vitro B2 receptor activity assay, which can be used to determine IC50 values of the compounds according to the present invention, e. g. the compounds shown in Examples 1-13.
The antagonistic activity of compounds according to the present invention was investigated with the hB2R-CaM assay using the B2 Bradykinin Receptor Stable Cell Line HTS041C (Eurofins, St. Charles MO) and the FLIPR Calcium 6 Assay Kit (Molecular Devices, Wokingham, UK) according to the instructions of the providers. CaM assay measurements were performed with a Flexstation 3 System (Molecular Devices) which allows the precise addition of compounds (B2R antagonists) and bradykinin (B2R agonist) to the cells and adjacent continuous recording of the time-dependent CaM assay signals.
HTS041C cells were cultured in high glucose DMEM cell culture medium (Lonza) supplemented with 10% heat-inactivated FBS (PAN Biotech), 10 mM HEPES, Penicillin/Streptomycin (200 U/mL, 200 μg/mL), lx non-essential amino acids (Lonza), and 250 μg/mL G418 (Invivogen) in cell incubator at 37° C. in a 5% CO2 atmosphere. One day before the CaM assay experiments cells were seeded in 200 μL DMEM cell culture medium with reduced FBS (5%) and without G418 on clear bottom black 96 well plates (ThermoFisher #165305). Cell starvation was carried out by incubation (37° C., 5% CO2) of 70.000 cells/well for 24 h to 28 h. Immediately prior calcium dye-loading the medium was carefully aspirated and cells were washed with Hank's balanced salt solution (HBSS, Gibco) containing Ca^2+, Mg^2+ and 20 mM HEPES, adjusted to pH 7.4 (HBSS+).
For calcium dye-loading one FLIPR 6 assay aliquot was dissolved in 20 mL HBSS+. 150 μL of the dye loading solution was added to cell plate and incubated for 120 min at 37° C. and 5% CO2. After dye loading the cell plate was immediately transferred to the pre-warmed (37° C.) Flexstation 3 System for CaM assaying.
Freshly prepared compound (B2 receptor antagonists) dilution series (8 pt, n=2) and bradykinin (B2 receptor agonist) solution in non-binding plates (Costar) were transferred to the Flexstation System (source plate) shortly before starting the experiment. Bradykinin was added in EC80 concentration determined in n>3 preliminary experiments with 8 pt concentration response curves (n=8)). CaM assay was executed by Flexstation 3 System starting with recording of calcium-sensitive dye fluorescence in bottom-read Flex modus with ex/em=485 nm/525 nm, cut off(em)=515 nm After 20 s, 50 μL of 4-fold concentrated compound dilutions were added to the cells resulting in a final DMSO (Sigma) concentration of 0.1% in the cell plate. CaM signals were monitored for 80 s after additions for detection of potential agonistic activities. Prior to bradykinin stimulus compound- and vehicle-treated cells were incubated for 25 min at 37° C. within the Flexstation System. Then 50 μL of a 5-fold concentrated bradykinin solution (HBSS+, 0.1% DMSO) was added to trigger CaM signals (Read out: Max-Min values) which were measured for 80 s post bradykinin stimulus.
IC50 determinations were performed by 4 parameter logistic model curve fitting of the 8 pt (n=2) compound concentration response curves using XLFIT (IDBS) software.
`CCN1CCN([C@@H](C)c2cc(F)cc(Cl)c2COc2cccc3c(-n4cc(F)cn4)cc(C)nc23)C(=O)C1` [compound 81] gave an IC50 of no more than 10 nM. Compound `Cc1cc(-n2cc(F)cn2)c2cccc(OCc3c(Cl)cc(F)cc3[C@H](C)N3C[C@H](O)CCC3=O)c2n1` [compound 82] has an IC50 of no more than 10 nM. `Cc1cc(-c2ncnn2C)c2cccc(OCc3c(Cl)cc(F)cc3[C@H](C)N3C[C@H](O)CCC3=O)c2n1` [compound 83] showed an IC50 of 11 to 100 nM. With `Cc1cc(-n2cc(F)cn2)c2cccc(OCc3c(Cl)cc(F)cc3[C@H](C)N3CCC[C@@H](O)C3=O)c2n1` [compound 84] the IC50 was 11 to 100 nM. For `Cc1cc(-c2ncnn2C)c2cccc(OCc3c(Cl)cc(F)cc3[C@H](C)N3CCC[C@H](O)C3=O)c2n1` [compound 85], the IC50 was 101 to 500 nM. In the case of `Cc1cc(-n2cc(F)cn2)c2cccc(OCc3c(Cl)cc(F)cc3[C@H](C)N3C[C@H](C)NC(=O)C3=O)c2n1` [compound 86], the IC50 is reported as no more than 10 nM. For `Cc1cc(-n2cc(F)cn2)c2cccc(OCc3c(Cl)cc(F)cc3[C@H](C)N3CCN(C)C(=O)C3=O)c2n1` [compound 87], the IC50 was no more than 10 nM. Compound `Cc1cc(-c2ncnn2C)c2cccc(OCc3c(Cl)cc(F)cc3[C@H](C)N3CC[C@@H](OC(F)F)C3=O)c2n1` [compound 88] has an IC50 of no more than 10 nM. `Cc1cc(-n2cc(F)cn2)c2cccc(OCc3c(Cl)cc(F)cc3[C@H](C)N3CC[C@@H](OC(F)F)C3=O)c2n1` [compound 89] gave an IC50 of 11 to 100 nM. `Cc1cc(-n2cc(F)cn2)c2cccc(OCc3c(Cl)cc(F)cc3[C@H](C)N3C(=O)[C@H](C)NC(=O)[C@@H]3C)c2n1` [compound 90] showed an IC50 of 11 to 100 nM. With `Cc1cc(-c2ncnn2C)c2cccc(OCc3c(Cl)cc(F)cc3[C@H](C)N3CC[C@H](F)C3=O)c2n1` [compound 91] the IC50 was no more than 10 nM. Compound `Cc1cc(-n2cc(F)cn2)c2cccc(OCc3c(Cl)cc(F)cc3[C@H](C)N3CCN(C)[C@@H](C)C3=O)c2n1` [compound 92] has an IC50 of no more than 10 nM. `Cc1cc(-n2cc(F)cn2)c2cccc(OCc3c(Cl)cc(F)cc3[C@H](C)N3CCN(C)[C@H](C)C3=O)c2n1` [compound 93] showed an IC50 of no more than 10 nM. In the case of `Cc1cc(-n2cc(F)cn2)c2cccc(OCc3c(Cl)cc(F)cc3[C@H](C)N3CCN[C@@H](C)C3=O)c2n1` [compound 94], the IC50 is reported as no more than 10 nM. With `Cc1cc(-n2cc(F)cn2)c2cccc(OCc3c(Cl)cc(F)cc3[C@H](C)N3C[C@H](O)CC3=O)c2n1` [compound 95] the IC50 was 11 to 100 nM. Work on `Cc1cc(-c2ncnn2C)c2cccc(OCc3c(Cl)cc(F)cc3[C@H](C)N3C[C@H](O)CC3=O)c2n1` [compound 96] yielded an IC50 of 11 to 100 nM. In the case of `Cc1cc(-n2cc(F)cn2)c2cccc(OCc3c(Cl)cc(F)cc3[C@H](C)N3C[C@@H](C)NC(=O)C3=O)c2n1` [compound 97], the IC50 is reported as no more than 10 nM. `Cc1cc(-c2ncnn2C)c2cccc(OCc3c(Cl)cc(F)cc3[C@H](C)N3C[C@@H](C)NC(=O)C3=O)c2n1` [compound 98] showed an IC50 of no more than 10 nM. Compound `Cc1cc(-n2cc(F)cn2)c2cccc(OCc3c(Cl)cc(F)cc3[C@H](C)N3C(=O)[C@@H](C)NC(=O)[C@@H]3C)c2n1` [compound 99] has an IC50 of 11 to 100 nM. `Cc1cc(-n2cc(F)cn2)c2cccc(OCc3c(Cl)cc(F)cc3[C@H](C)N3CCNC(C)(C)C3=O)c2n1` [compound 100] showed an IC50 of 11 to 100 nM. Compound `Cc1cc(-c2ncnn2C)c2cccc(OCc3c(Cl)cc(F)cc3[C@H](C)N3CC(=O)NC(C)(C)C3=O)c2n1` [compound 101] has an IC50 of 11 to 100 nM. `Cc1cc(-n2cc(F)cn2)c2cccc(OCc3c(Cl)cc(F)cc3[C@H](C)N3CC(=O)NC(C)(C)C3=O)c2n1` [compound 102] gave an IC50 of 11 to 100 nM. Compound `Cc1cc(-n2cc(F)cn2)c2cccc(OCc3c(Cl)cc(F)cc3[C@H](C)N3CC(=O)N(C)[C@H](C)C3=O)c2n1` [compound 103] has an IC50 of 11 to 100 nM. In the case of `Cc1cc(-c2ncnn2C)c2cccc(OCc3c(Cl)cc(F)cc3[C@H](C)N3CC(=O)N(C)[C@H](C)C3=O)c2n1` [compound 104], the IC50 is reported as no more than 10 nM. `Cc1cc(-c2ncnn2C)c2cccc(OCc3c(Cl)cc(F)cc3[C@H](C)N3C(=O)[C@@H](C)NC(=O)[C@H]3C)c2n1` [compound 105] gave an IC50 of 11 to 100 nM. Compound `Cc1cc(-c2ncnn2C)c2cccc(OCc3c(Cl)cc(F)cc3[C@H](C)N3C(=O)[C@H](C)NC(=O)[C@H]3C)c2n1` [compound 106] has an IC50 of 11 to 100 nM. Work on `CCN1C(=O)CN([C@@H](C)c2cc(F)cc(Cl)c2COc2cccc3c(-n4cc(F)cn4)cc(C)nc23)C1=O` [compound 107] yielded an IC50 of 11 to 100 nM.

Source: US12312330B2, “1-((S)-1-(3-chloro-5-fluoro-2-((4-(1h-pyrazol-1-yl)-2-methylquinolin-8-yloxy)methyl)phenyl)ethyl)-imidazolidine-2,4-dione derivatives and related compounds as bradykinin (BK) B2 receptor antagonist for treating skin diseases” (Pharvaris GmbH, priority 2019, dated 2025)
